Key:
D(3) dopamine receptor [1] = target: T1, D(3) dopamine receptor (Homo sapiens, UniProt P35462); assay: Displacement of [3H]N-methylspiperone from human dopamine D3 receptor after 1 hr
D(1A) dopamine receptor [2] = target: T2, D(1A) dopamine receptor (Homo sapiens, UniProt P21728); assay: Displacement of [3H]SCH23390 from human dopamine D1 receptor after 1 hr
D(2) dopamine receptor [3] = target: T3, D(2) dopamine receptor (Homo sapiens, UniProt P14416); assay: Displacement of [3H]N-methylspiperone from human dopamine D2 receptor after 1 hr
T3 sequence (P14416 whole entry): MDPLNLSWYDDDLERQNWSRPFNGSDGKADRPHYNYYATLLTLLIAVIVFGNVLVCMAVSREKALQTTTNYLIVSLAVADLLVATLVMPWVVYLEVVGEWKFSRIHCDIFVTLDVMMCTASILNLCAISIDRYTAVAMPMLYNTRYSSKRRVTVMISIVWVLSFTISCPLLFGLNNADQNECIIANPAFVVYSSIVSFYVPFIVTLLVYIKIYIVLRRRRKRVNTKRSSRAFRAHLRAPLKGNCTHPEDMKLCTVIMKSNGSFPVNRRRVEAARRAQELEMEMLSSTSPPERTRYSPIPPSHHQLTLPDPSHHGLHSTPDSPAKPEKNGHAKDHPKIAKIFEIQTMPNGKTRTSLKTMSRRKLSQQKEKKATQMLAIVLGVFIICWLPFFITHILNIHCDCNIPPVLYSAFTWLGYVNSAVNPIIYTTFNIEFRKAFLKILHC

D(1B) dopamine receptor [4] = target: T4, D(1B) dopamine receptor (Homo sapiens, UniProt P21918); assay: Displacement of [3H]SCH23390 from human dopamine D5 receptor after 1 hr
T4 sequence (P21918 whole entry): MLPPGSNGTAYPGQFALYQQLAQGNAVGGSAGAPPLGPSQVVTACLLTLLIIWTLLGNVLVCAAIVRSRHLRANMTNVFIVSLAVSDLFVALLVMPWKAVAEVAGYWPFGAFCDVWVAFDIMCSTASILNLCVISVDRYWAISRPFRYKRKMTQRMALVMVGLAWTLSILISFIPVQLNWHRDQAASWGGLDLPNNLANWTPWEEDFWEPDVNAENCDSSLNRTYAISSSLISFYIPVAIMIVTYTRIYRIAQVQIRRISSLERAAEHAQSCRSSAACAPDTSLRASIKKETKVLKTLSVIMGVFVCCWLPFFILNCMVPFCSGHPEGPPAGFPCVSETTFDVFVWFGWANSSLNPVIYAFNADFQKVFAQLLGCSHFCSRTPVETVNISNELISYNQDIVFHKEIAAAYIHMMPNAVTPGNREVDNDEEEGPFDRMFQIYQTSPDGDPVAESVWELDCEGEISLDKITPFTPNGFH

D(4) dopamine receptor [5] = target: T5, D(4) dopamine receptor (Homo sapiens, UniProt P21917); assay: Displacement of [3H]N-methylspiperone from human dopamine D4 receptor after 1 hr
T5 sequence (P21917 whole entry): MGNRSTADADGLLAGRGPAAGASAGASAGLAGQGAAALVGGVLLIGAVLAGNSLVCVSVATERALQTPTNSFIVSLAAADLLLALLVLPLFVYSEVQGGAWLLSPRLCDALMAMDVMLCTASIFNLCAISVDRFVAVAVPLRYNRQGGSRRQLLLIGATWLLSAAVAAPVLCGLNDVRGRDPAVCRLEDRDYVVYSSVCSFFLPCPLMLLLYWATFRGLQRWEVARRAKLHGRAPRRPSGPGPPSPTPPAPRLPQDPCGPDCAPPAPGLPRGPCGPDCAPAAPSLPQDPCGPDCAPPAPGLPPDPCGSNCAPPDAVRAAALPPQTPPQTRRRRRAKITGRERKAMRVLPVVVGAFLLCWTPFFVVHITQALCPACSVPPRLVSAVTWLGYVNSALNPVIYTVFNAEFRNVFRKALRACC

D(1A) dopamine receptor [6] = target: T2, D(1A) dopamine receptor; assay: Displacement of [3H]SCH23390 from human 3HA-tagged dopamine D1 receptor expressed in HEK293 cells after 1 hr; assay type: cell-based
D(4) dopamine receptor [7] = target: T5, D(4) dopamine receptor; assay: Displacement of [3H]SCH23390 from human dopamine D4 receptor expressed in HEK293 cells after 1 hr; assay type: cell-based
D(3) dopamine receptor [8] = target: T1, D(3) dopamine receptor; assay: biochemical
D(2) dopamine receptor [9] = target: T3, D(2) dopamine receptor; assay: Displacement of [3H]SCH23390 from human FLAG-tagged dopamine D2 receptor expressed in HEK293 cells after 1 hr; assay type: cell-based
D(1B) dopamine receptor [10] = target: T4, D(1B) dopamine receptor; conditions: hek293

T2 sequence (P21728 whole entry): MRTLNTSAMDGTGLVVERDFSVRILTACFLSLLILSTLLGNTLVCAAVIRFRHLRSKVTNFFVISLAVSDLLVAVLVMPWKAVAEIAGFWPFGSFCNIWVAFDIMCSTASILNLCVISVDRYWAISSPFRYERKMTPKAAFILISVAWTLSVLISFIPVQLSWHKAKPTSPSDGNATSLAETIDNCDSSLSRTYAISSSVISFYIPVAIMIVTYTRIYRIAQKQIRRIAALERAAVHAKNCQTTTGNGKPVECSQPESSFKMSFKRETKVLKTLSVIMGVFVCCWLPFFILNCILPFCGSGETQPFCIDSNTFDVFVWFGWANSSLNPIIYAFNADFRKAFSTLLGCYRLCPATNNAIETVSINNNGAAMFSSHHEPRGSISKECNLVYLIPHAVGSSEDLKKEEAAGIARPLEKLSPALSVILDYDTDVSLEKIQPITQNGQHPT
T1 sequence (P35462 whole entry): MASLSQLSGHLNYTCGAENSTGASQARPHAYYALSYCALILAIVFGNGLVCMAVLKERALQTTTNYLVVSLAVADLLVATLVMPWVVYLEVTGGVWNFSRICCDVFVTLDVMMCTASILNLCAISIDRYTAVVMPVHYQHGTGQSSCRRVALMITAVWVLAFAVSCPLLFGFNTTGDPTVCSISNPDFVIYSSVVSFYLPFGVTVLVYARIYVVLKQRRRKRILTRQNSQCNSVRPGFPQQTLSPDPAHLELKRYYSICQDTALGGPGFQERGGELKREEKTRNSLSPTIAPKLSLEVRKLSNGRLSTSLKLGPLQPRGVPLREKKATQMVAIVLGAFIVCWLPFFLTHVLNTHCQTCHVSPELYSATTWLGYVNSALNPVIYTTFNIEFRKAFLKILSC

SMILES | Ki (D(3) dopamine receptor [1]) [nM] | Ki (D(1A) dopamine receptor [2]) [nM] | Ki (D(2) dopamine receptor [3]) [nM] | Ki (D(1B) dopamine receptor [4]) [nM] | Ki (D(4) dopamine receptor [5]) [nM] | Ki (D(1A) dopamine receptor [6]) [nM] | Ki (D(4) dopamine receptor [7]) [nM] | Ki (D(3) dopamine receptor [8]) [nM] | Ki (D(1A) dopamine receptor [6]; hek293) [nM] | Ki (D(2) dopamine receptor [9]) [nM] | Ki (D(1B) dopamine receptor [10]) [nM]
COc1c(O)ccc2c1CN1CCc3cc4c(cc3[C@@H]1C2)OCO4 | 82.4 | 6.5 | 49.2 | 15.1 | 1980 |  |  |  |  |  | 
COc1cc2c(cc1O)CCN1Cc3c(ccc(OC)c3OC)C[C@@H]21 | 262 | 199 | 42.4 | 313 | > 1000 |  |  |  |  |  | 
COc1cc2c(cc1O)[C@@H]1Cc3ccc(OC)c(OC)c3CN1CC2 |  |  |  |  |  | […] | 77.4 | 37.3 |  |  | 
COc1cc2c(cc1OC)[C@@H]1Cc3ccc(O)c(OC)c3CN1CC2 | 1710 | 107 | 533 | 242 | > 1000 |  |  |  |  |  | 
COc1ccc2c(c1OC)CN1CCc3cc4c(cc3[C@@H]1C2)OCO4 [CANADINE] | 433 | 48.6 | 80.2 | 62.1 | 486 |  |  |  |  |  | 
COc1cc2c(cc1OC)[C@@H]1Cc3ccc(OC)c(OC)c3CN1CC2 [TETRAHYDROPALMATINE] |  |  |  |  |  |  | > 1000 |  | 153 | 1120 | 305
